“And” between values parts separate entries of the source, which are not always exact repeats. Identical values can stand only once. Like-named read-outs stand apart in the source and are kept apart here. Starred links: 1 amine or outer side, 2 acyl side, 3 side chain; linkers in the order of their positions; H or OH if unused. Non-standard residues stand in square brackets, D forms with d. Residues, ends and D or L forms follow the SMILES beside them. NMeI = CC[C@H](C)[C@H](NC)C(=O)O; Suc = O=C(CCC(=O)[*:2])[*:1]; NMeV = CN[C@H](C(=O)O)C(C)C
How the values were obtained:
huTAC3R (NK3R) = biological target: T1, huTAC3R (NK3R) (Homo sapiens, UniProt P29371); assay: CRE-/SRE-Luc receptor transactivation reporter assay in COS-7 cells, human TAC3R; assay type: cell-based; details: mean ± SEM
T1 construct: host or cells: COS-7
T1 sequence (P29371 1-465): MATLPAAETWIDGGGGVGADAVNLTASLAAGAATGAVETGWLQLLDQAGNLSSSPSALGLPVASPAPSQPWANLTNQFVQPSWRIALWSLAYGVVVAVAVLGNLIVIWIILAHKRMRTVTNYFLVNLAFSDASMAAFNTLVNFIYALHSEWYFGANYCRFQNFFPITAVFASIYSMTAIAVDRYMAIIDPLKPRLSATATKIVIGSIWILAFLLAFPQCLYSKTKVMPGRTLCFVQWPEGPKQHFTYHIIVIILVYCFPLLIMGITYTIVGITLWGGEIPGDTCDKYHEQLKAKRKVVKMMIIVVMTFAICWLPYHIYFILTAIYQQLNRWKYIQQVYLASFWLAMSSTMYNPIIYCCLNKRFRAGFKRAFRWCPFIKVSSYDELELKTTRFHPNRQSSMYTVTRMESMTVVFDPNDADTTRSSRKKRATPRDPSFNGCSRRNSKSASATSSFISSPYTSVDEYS
Source text: (§1) Receptor transactivation assays were generally performed according to Biran et al. ([10]). Briefly, in order to study the signaling pathways of the novel fish NKB and NKF analogs, the entire coding sequence of tiTac3ra (GenBank accession no. KF471674), tiTac3rb (GenBank accession no. KF471675), zfTac3ra (GenBank accession no. JF317292) and zfTac3rb (GenBank accession no. JF317293) were inserted into pcDNA3.1 (Invitrogen). To differentiate between the protein kinase A (PKA) and PKC signal transduction pathways, we used a sensitive luciferase (Luc) reporter gene assay. […] The cDNA clone for human TAC3R was obtained from the Missouri S&T cDNA Resource Center (www.cdna.org). Three micrograms of each construct together with three micrograms of a luciferase reporter plasmid were transiently co-transfected into COS-7 cells. […] EC50 values were calculated from dose response curves by means of computerized non-linear curve fitting on baseline-corrected (control) values using Prism version 6 software (GraphPad).

tiTac3ra = tiTac3ra (Oreochromis niloticus, UniProt A0A075QPN8); assay: cell-based; details: COS-7 cells, mean ± SEM
Source text: (§2) Receptor transactivation assays were generally performed according to Biran et al. ([10]). Briefly, in order to study the signaling pathways of the novel fish NKB and NKF analogs, the entire coding sequence of tiTac3ra (GenBank accession no. KF471674), tiTac3rb (GenBank accession no. KF471675), zfTac3ra (GenBank accession no. JF317292) and zfTac3rb (GenBank accession no. JF317293) were inserted into pcDNA3.1 (Invitrogen). To differentiate between the protein kinase A (PKA) and PKC signal transduction pathways, we used a sensitive luciferase (Luc) reporter gene assay. […] Three micrograms of each construct together with three micrograms of a luciferase reporter plasmid were transiently co-transfected into COS-7 cells. […] EC50 values were calculated from dose response curves by means of computerized non-linear curve fitting on baseline-corrected (control) values using Prism version 6 software (GraphPad).

tiTac3rb = tiTac3rb (Oreochromis niloticus, UniProt A0A075QUD7); assay: cell-based; details: COS-7 cells, mean ± SEM
Source text: as §2

zfTac3ra = biological target: T2, zfTac3ra (Danio rerio, UniProt H6A6A7); assay: CRE-/SRE-Luc receptor transactivation reporter assay in COS-7 cells, zebrafish Tac3ra; assay type: cell-based; details: mean ± SEM
T2 sequence (H6A6A7 1-399): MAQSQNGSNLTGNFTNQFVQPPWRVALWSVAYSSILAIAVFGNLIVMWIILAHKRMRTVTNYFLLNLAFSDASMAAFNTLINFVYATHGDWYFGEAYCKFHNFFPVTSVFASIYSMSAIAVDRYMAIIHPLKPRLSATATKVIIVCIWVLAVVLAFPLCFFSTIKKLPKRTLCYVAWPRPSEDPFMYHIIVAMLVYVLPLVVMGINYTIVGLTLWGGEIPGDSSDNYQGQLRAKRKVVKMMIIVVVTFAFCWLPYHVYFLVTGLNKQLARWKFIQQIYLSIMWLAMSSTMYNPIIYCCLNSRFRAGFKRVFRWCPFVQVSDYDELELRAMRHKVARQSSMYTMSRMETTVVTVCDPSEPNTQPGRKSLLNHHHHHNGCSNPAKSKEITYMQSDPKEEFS
Source text: as §1

zfTac3rb = biological target: T3, zfTac3rb (Danio rerio, UniProt F1R3V0); assay: CRE-/SRE-Luc receptor transactivation reporter assay in COS-7 cells, zebrafish Tac3rb; assay type: cell-based; details: mean ± SEM
T3 sequence (F1R3V0 1-395): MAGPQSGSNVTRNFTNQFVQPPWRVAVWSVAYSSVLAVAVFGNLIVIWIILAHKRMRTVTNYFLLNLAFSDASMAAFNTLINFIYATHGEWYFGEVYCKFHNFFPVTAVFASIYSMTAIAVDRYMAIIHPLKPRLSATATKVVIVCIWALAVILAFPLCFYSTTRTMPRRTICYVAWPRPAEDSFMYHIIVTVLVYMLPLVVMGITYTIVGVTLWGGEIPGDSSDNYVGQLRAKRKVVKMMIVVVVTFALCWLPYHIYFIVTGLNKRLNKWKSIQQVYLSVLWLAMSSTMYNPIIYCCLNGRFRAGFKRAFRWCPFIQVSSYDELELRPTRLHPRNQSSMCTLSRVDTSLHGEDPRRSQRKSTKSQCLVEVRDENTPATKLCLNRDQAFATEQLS
Source text: as §1

female tilapia = assay: In vivo effect on GH, FSH and LH plasma levels (ELISA) after IP injection; set-up: species or system Nile tilapia (O. niloticus); details: peptides/analogs 100 μg/kg BW, sGnRHa 10 μg/kg BW
Experimental: Adult female tilapia (BW 89.29 ± 32.93 g) were injected IP with saline, sGnRH analog ([…]; 10 μg/kg BW; [[…],[…]-Net]-mammalian GnRH; Bachem), tiNKB, tiNKF, or their analogs at 100 μg/kg BW (n = 8 fish per group). The fish were bled from the caudal blood vessels into heparinized syringes 1, 2, 4, 8, and 24 h after injection and blood was centrifuged (3,200 rpm for 30 min at 4°C) to obtain plasma samples, which were stored at -20°C until assayed. This time course is according to standard protocols used previously ([28], [29]) to test the effect of GnRH and other hypothalamic neuropeptides on circulating levels of LH, FSH, and GH in tilapia. Blood samples were collected from the caudal vasculature. Three independent experiments were carried out for the in vivo studies. Levels of LH, FSH, and GH in the plasma were measured by specific competitive ELISAs developed for tilapia ([30], [31]) based on recombinant ([…] or rtiGH. Primary antisera was produced against […]β, or rtGH ([31]), and […]βα ([28]) or rtGH was used for generating the standard curves.

[1] = SRE-Luc reporter (PKC/Ca2+), read-out: EC50 huTAC3R (NK3R) SRE
[2] = EC50 tiTac3ra CRE, CRE-Luc reporter (PKA/cAMP)
[3] = EC50 tiTac3ra SRE, SRE-Luc reporter (PKC/Ca2+)
[4] = EC50 tiTac3rb CRE, CRE-Luc reporter (PKA/cAMP)
[5] = EC50 tiTac3rb SRE, SRE-Luc reporter (PKC/Ca2+)
[6] = CRE-Luc reporter (PKA/cAMP), read-out: EC50 huTAC3R (NK3R) CRE
[7] = CRE-Luc reporter (PKA/cAMP), read-out: EC50 zfTac3ra CRE
[8] = SRE-Luc reporter (PKC/Ca2+), read-out: EC50 zfTac3ra SRE
[9] = CRE-Luc reporter (PKA/cAMP), read-out: EC50 zfTac3rb CRE
[10] = SRE-Luc reporter (PKC/Ca2+), read-out: EC50 zfTac3rb SRE

Sequence of tiTac3ra (A0A075QPN8 1-415): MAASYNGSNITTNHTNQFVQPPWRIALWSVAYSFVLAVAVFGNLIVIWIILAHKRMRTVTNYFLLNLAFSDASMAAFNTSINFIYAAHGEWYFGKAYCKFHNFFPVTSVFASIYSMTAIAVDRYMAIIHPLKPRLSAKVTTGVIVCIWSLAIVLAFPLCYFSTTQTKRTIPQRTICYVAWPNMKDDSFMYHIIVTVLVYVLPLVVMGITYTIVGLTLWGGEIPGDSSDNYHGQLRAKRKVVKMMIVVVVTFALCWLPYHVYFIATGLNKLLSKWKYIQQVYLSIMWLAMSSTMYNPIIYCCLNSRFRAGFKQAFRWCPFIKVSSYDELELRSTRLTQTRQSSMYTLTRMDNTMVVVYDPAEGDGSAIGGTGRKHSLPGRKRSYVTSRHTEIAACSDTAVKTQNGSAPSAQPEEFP
Sequence of tiTac3rb (A0A075QUD7 1-361): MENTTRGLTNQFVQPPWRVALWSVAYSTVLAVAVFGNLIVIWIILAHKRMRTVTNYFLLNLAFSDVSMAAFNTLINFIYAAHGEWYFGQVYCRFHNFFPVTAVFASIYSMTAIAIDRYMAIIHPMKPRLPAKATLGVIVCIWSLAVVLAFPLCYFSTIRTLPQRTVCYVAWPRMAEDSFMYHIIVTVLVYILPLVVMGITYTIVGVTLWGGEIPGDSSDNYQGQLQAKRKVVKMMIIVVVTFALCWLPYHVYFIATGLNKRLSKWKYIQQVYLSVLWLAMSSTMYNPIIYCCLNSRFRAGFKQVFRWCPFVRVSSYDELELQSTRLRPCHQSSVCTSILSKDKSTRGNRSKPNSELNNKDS

Compound `CC[C@H](C)[C@H](NC(=O)[C@H](CC(=O)O)NC(=O)CCC(=O)O)C(=O)N[C@@H](Cc1ccccc1)C(=O)N(C)[C@H](C(=O)NCC(=O)N[C@@H](CC(C)C)C(=O)N[C@@H](CCSC)C(N)=O)[C@@H](C)CC` [tiNKB analog, Succ-Asp-Ile-Phe-N(Me)Ile-Gly-Leu-Met-NH2] (Suc-DIF[NMeI]GLM-NH2) has an EC50 (huTAC3R (NK3R); [1]) of 210.2 ± 1.18 nM, an EC50 (tiTac3ra; [2]) of 12.9 ± 0.36 nM and an EC50 (tiTac3ra; [3]) of 12.3 ± 0.29 nM. It also gave an EC50 (tiTac3rb; [4]) of 6.88 ± 0.29 nM and an EC50 (tiTac3rb; [5]) of 1.73 ± 0.46 nM.
Work on `CSCC[C@H](NC(=O)[C@H](CC(C)C)NC(=O)CNC(=O)[C@@H](NC(=O)[C@H](Cc1ccccc1)NC(=O)[C@H](CO)NC(=O)[C@H](CC(=O)O)NC(=O)[C@H](Cc1ccc(O)cc1)NC(=O)[C@H](CC(=O)O)NC(=O)[C@H](CC(C)C)NC(=O)[C@H](CC(=O)O)NC(=O)[C@H](CC(N)=O)NC(=O)[C@@H](N)Cc1ccc(O)cc1)C(C)C)C(N)=O` [tiNKF] (H-YNDLDYDSFVGLM-NH2) yielded an EC50 (huTAC3R (NK3R); [6]) of 0.51 ± 0.24 nM, an EC50 (huTAC3R (NK3R); [1]) of 32.58 ± 0.05 nM and an EC50 (tiTac3ra; [2]) of 3.17 ± 0.18 nM. The EC50 (tiTac3ra; [3]) was 0.2 nM and 0.24 nM, the EC50 (tiTac3rb; [4]) was 2.13 ± 0.42 nM and the EC50 (tiTac3rb; [5]) was 0.46 ± 0.49 nM.
`CC[C@H](C)[C@H](NC(=O)[C@H](CC(=O)O)NC(=O)CCC(=O)O)C(=O)N[C@@H](Cc1ccccc1)C(=O)N(C)[C@H](C(=O)NCC(=O)N[C@@H](CC(C)C)C(=O)N[C@@H](CCSC)C(N)=O)C(C)C` [zfNKBa analog, Succ-Asp-Ile-Phe-N(Me)Val-Gly-Leu-Met-NH2] (Suc-DIF[NMeV]GLM-NH2) was tested, and the EC50 (huTAC3R (NK3R); [6]) was 11.5 ± 0.4 nM, the EC50 (huTAC3R (NK3R); [1]) was 0.03 nM and the EC50 (zfTac3ra; [7]) was 873.2 ± 0.64 nM. It also gave an EC50 (zfTac3ra; [8]) of 7.88 ± 1.89 nM, an EC50 (zfTac3rb; [9]) of 0.781 ± 0.15 nM and an EC50 (zfTac3rb; [10]) of 5.79 ± 0.52 nM.
`CC[C@H](C)[C@H](NC(=O)[C@H](CC(=O)O)NC(=O)[C@H](Cc1c[nH]cn1)NC(=O)[C@H](CCSC)NC(=O)[C@@H](N)CCC(=O)O)C(=O)N[C@@H](Cc1ccccc1)C(=O)N[C@H](C(=O)NCC(=O)N[C@@H](CC(C)C)C(=O)N[C@@H](CCSC)C(N)=O)C(C)C` [zfNKBa] (H-EMHDIFVGLM-NH2) showed an EC50 (huTAC3R (NK3R); [6]) of 1.71 ± 0.32 nM, an EC50 (huTAC3R (NK3R); [1]) of 0.11 ± 0.3 nM and an EC50 (zfTac3ra; [7]) of 26.5 ± 0.38 nM. The EC50 (zfTac3ra; [8]) was 139.6 ± 0.38 nM, the EC50 (zfTac3rb; [9]) was 41.37 ± 0.18 nM and the EC50 (zfTac3rb; [10]) was 1.1 ± 0.13 nM.
With `CC[C@H](C)[C@H](NC(=O)CNC(=O)[C@@H](NC(=O)[C@@H](N)CO)[C@@H](C)O)C(=O)N[C@@H](CC(N)=O)C(=O)N[C@@H](CCCNC(=N)N)C(=O)N[C@@H](CCC(=O)O)C(=O)N[C@@H](C)C(=O)N[C@@H](Cc1c[nH]cn1)C(=O)N[C@@H](CC(C)C)C(=O)N1CCC[C@H]1C(=O)N[C@@H](Cc1ccccc1)C(=O)N[C@@H](CCCNC(=N)N)C(=O)N1CCC[C@H]1C(=O)N[C@@H](CC(N)=O)C(=O)N[C@@H](CCSC)C(=O)N[C@@H](CC(N)=O)C(=O)N[C@@H](CC(=O)O)C(=O)N[C@H](C(=O)N[C@@H](Cc1ccccc1)C(=O)N[C@H](C(=O)NCC(=O)N[C@@H](CC(C)C)C(=O)N[C@@H](CC(C)C)C(=O)N[C@@H](CCC(=O)O)C(=O)N[C@@H](CCSC)C(=O)N[C@@H](Cc1c[nH]cn1)C(=O)N[C@@H](CC(=O)O)C(=O)N[C@H](C(=O)N[C@@H](Cc1ccccc1)C(=O)N[C@H](C(=O)NCC(=O)N[C@@H](CC(C)C)C(=O)N[C@@H](CCSC)C(N)=O)C(C)C)[C@@H](C)CC)C(C)C)[C@@H](C)CC` [zfNKBb] (H-STGINREAHLPFRPNMNDIFVGLLEMHDIFVGLM-NH2) the EC50 (huTAC3R (NK3R); [6]) was 17.4 ± 0.15 nM, the EC50 (huTAC3R (NK3R); [1]) was 18.7 ± 0.25 nM and the EC50 (zfTac3ra; [7]) was 0.94 nM and 0.948 nM. For the same compound, the EC50 (zfTac3ra; [8]) was 84.98 ± 0.31 nM, the EC50 (zfTac3rb; [9]) was 101.4 ± 0.37 nM and the EC50 (zfTac3rb; [10]) was 17.9 ± 0.43 nM.
With `CC[C@H](C)[C@H](NC(=O)[C@H](CC(=O)O)NC(=O)[C@H](CC(N)=O)NC(=O)[C@@H](N)Cc1ccc(O)cc1)C(=O)N[C@@H](CC(=O)O)C(=O)N[C@@H](Cc1ccc(O)cc1)C(=O)N[C@@H](CC(=O)O)C(=O)N[C@@H](CO)C(=O)N[C@@H](Cc1ccccc1)C(=O)N[C@H](C(=O)NCC(=O)N[C@@H](CC(C)C)C(=O)N[C@@H](CCSC)C(N)=O)C(C)C` [zfNKF] (H-YNDIDYDSFVGLM-NH2) the EC50 (huTAC3R (NK3R); [6]) was 1.25 nM, the EC50 (huTAC3R (NK3R); [1]) was 0.18 ± 0.52 nM and the EC50 (zfTac3ra; [7]) was 5.47 ± 0.43 nM. The EC50 (zfTac3ra; [8]) was 0.51 ± 0.36 nM, the EC50 (zfTac3rb; [9]) was 0.032 nM and the EC50 (zfTac3rb; [10]) was 25.51 ± 0.23 nM.
For “[D-Ala^6,Pro^9-Net]-mammalian GnRH [sGnRHa]”, the “duration of increased plasma LH post-injection” value (female tilapia) was “up to 4 h”.
